The source of these data is patent US20080287662A1, “Balanites Aegyptiaca Saponins and Uses Thereof” (priority 2005, published 2008).

Marks after values point to notes of the source that are not given here.

This experiment deals with mung bean cuttings. The experiment is described as follows: Rooting of mung bean cuttings. In kind it is in vivo. Particulars: IBA 100 μM, saponins 100 ppm; rooting assessed seven days. The procedure:
This effect was increased as saponin concentration increased up to 500 ppm for Balanites mesocarp extract saponins and 50 ppm for Balanites root extract saponins, and up to 100 ppm for Quillaja saponaria bark extract saponins. The treatment solution was replaced by fresh water after 24 h and the rooting was assessed 10 days after the initiation of the experiment. The stimulating effect of saponins on root formation may be related to their hormone-like effect, but their effect on root elongation seems to be mainly due to their influence on increase of water uptake. The enhancing effect of saponins on rooting of mung bean cuttings when applied together with the synthetic plant hormone indole-3-butyric acid (IBA) is shown in Table 17. […] Similar, but weaker, enhancing effect was found with Quillaja bark extract saponins (the treatment solution was replaced by fresh water after 24 h and the rooting was assessed seven days after the initiation of the experiment).

Consider `O=C(O)CCCc1c[nH]c2ccccc12` [IBA, indole-3-butyric acid], for which the Average root length is on record as 10.1 ± 0.4^cd mm and the “Number of roots per cutting” value is reported as 28.3 ± 1.3^c.
